Measured values taken from patent publication US9932637B2, “Genetic polymorphisms associated with cardiovascular disorders and drug response, methods of detection and uses thereof” (CELERA CORPORATION, priority 2003, dated 2018).

System: patients with prior myocardial infarction (CARE study)
Experiment: CARE: association of SNPs with pravastatin treatment in cardiovascular events prevention (logistic regression, odds ratio pravastatin vs placebo by genotype; Table 8)
Assay type: in vivo, human
Conditions: for Definite Nonfatal MI, n/total (%) / Fatal CHD/Definite Nonfatal MI, n/total (%): CD6 hCV25922320, All Patients; for Fatal/Nonfatal MI (def & prob), n/total (%) / MI (Fatal/Nonfatal), n/total (%) / Nonfatal MI (def & prob), n/total (%): COL11A1 hCV8400671, All Patients
Source text: In order to identify genetic markers associated with acute coronary events (e.g. MI, stroke, unstable angina, congestive heart failure, etc.) or response to statin treatment for the prevention of coronary events, samples from the Cholesterol and Recurrent Events (CARE) study (a randomized multicentral double-blinded trial on secondary prevention of acute coronary events with pravastatin) (Sacks et al., 1991, Am. J. Cardiol. 68: 1436-1446) were genotyped. A well-documented myocardial infarction (MI) was one of the enrollment criteria for entry into the CARE study. Patients were enrolled in the CARE trial from 80 participating study centers. […] Patients were randomized to receive either 40 mg of pravastatin once daily or a matching placebo. The primary endpoint of the trial was death from coronary heart disease and the median duration of follow-up was 5.0 years (range, 4.0 to 6.2 years). […] Secondary endpoints of other related cardiovascular or metabolic disease events, and changes in clinical variables were also recorded in pravastatin-treated and placebo groups. All individuals included in the study had signed a written informed consent form and the study protocol was approved by the respective Institutional Review Boards (IRBs).
For genotyping SNPs in CARE patient samples, DNA was extracted from blood samples using conventional DNA extraction methods such as the QIA-amp kit from Qiagen. Genotypes were obtained on an ABI PRISM® 7900HT Sequence Detection PCR system (Applied Biosystems, Foster City, Calif.) by kinetic allele-specific PCR, similar to the method described by Germer et al. (Germer S., Holland M. J., Higuchi R. 2000, Genome Res. 10: 258-266).
Statistical analysis for association of SNPs with pravastatin treatment in cardiovascular events prevention (Table 8) was carried out using an overall logistic regression model that included an intercept, a parameter for the effect of a genotype containing two rare alleles versus a genotype containing no rare alleles, a parameter for the effect of a genotype containing one rare allele versus a genotype containing no rare alleles, a parameter for the effect of use of pravastatin versus the use of placebo, and parameters for the interaction effects between SNP genotypes and pravastatin use. The test of the overall model is a chi-square test with two degrees of freedom for analyses containing all three genotypes, and one degree of freedom for analyses containing two genotypes.
Effect sizes were estimated through odds ratios (pravastatin group versus placebo) for carriers of each genotype (groups of 0, 1, and 2 minor allele carriers). The effect was considered to be significant if p-value for testing whether any of the interactions between SNP genotypes and pravastatin use were <0.05. […] Odds ratios less than one indicate that the specific SNP allele has a protective effect and odds ratios greater than one indicate that the specific SNP allele has an adverse effect.

[1] = CCL11 hCV7449808, All Patients, 2 Rare Alleles, Prava, n/total 9/34
[2] = CCL11 hCV7449808, All Patients, Fatal/Non-fatal Atherosclerotic CV Disease
[3] = CCL11 hCV7449808, All Patients, Hosp. for Cardiovascular Disease
[4] = CCL11 hCV7449808, All Patients, Total Cardiovascular Disease Events
[5] = CCL11 hCV7449808, All Patients, Total Coronary Heart Disease Events
[6] = CD6 hCV2553030, All Patients, 0 Rare Alleles, Prava arm
[7] = CD6 hCV2553030, All Patients, 1 Rare Allele, Prava arm
[8] = CD6 hCV2553030, All Patients, 2 Rare Alleles, Prava arm
[9] = CHUK hCV1345898, All Patients, Hosp. for Unstable Angina
[10] = CHUK hCV1345898, All Patients, Non-fatal MI (def & prob)

## CC[C@H](C)C(=O)O[C@H]1C[C@H](O)C=C2C=C[C@H](C)[C@H](CC[C@@H](O)C[C@@H](O)CC(=O)O)[C@H]21 [pravastatin]
CCL11 hCV7449808, All Patients, 2 Rare Alleles, Prava, n/total 4/34
  Total Coronary Heart Disease Events, n/total (%): (11.8%)
CCL11 hCV7449808, All Patients, 2 Rare Alleles, Prava, n/total 7/34
  Fatal/Non-fatal Atherosclerotic CV Disease, n/total (%): (20.6%)
[1]
  Hosp. for Cardiovascular Disease, n/total (%): (26.5%)
  Total Cardiovascular Disease Events, n/total (%): (26.5%)
[2]
  Prava vs. Placebo Odds Ratio, 0 Rare Alleles: 0.80
  Prava vs. Placebo Odds Ratio, 1 Rare Alleles: 0.82
  Prava vs. Placebo Odds Ratio, 2 Rare Alleles: 0.21
[3]
  Prava vs. Placebo Odds Ratio, 0 Rare Alleles: 0.76
  Prava vs. Placebo Odds Ratio, 1 Rare Alleles: 0.91
  Prava vs. Placebo Odds Ratio, 2 Rare Alleles: 0.16
[4]
  Prava vs. Placebo Odds Ratio, 0 Rare Alleles: 0.77
  Prava vs. Placebo Odds Ratio, 1 Rare Alleles: 0.88
  Prava vs. Placebo Odds Ratio, 2 Rare Alleles: 0.14
[5]
  Prava vs. Placebo Odds Ratio, 0 Rare Alleles: 0.80
  Prava vs. Placebo Odds Ratio, 1 Rare Alleles: 0.84
  Prava vs. Placebo Odds Ratio, 2 Rare Alleles: 0.16
[6]
  Hosp. for Cardiovascular Disease, n/total (%): (41.5%)
  Total Cardiovascular Disease Events, n/total (%): (43.2%)
[7]
  Hosp. for Cardiovascular Disease, n/total (%): (39.9%)
  Total Cardiovascular Disease Events, n/total (%): (40.3%)
[8]
  Hosp. for Cardiovascular Disease, n/total (%): (31.3%)
  Total Cardiovascular Disease Events, n/total (%): (33.0%)
CD6 hCV2553030, All Patients, Hosp. for Cardiovascular Disease, 0 rare alleles
  Odds ratio pravastatin vs placebo: 0.81
CD6 hCV2553030, All Patients, Hosp. for Cardiovascular Disease, 1 rare allele
  Odds ratio pravastatin vs placebo: 0.78
CD6 hCV2553030, All Patients, Hosp. for Cardiovascular Disease, 2 rare alleles
  Odds ratio pravastatin vs placebo: 0.37
CD6 hCV2553030, All Patients, Total Cardiovascular Disease Events, 0 rare alleles
  Odds ratio pravastatin vs placebo: 0.83
CD6 hCV2553030, All Patients, Total Cardiovascular Disease Events, 1 rare allele
  Odds ratio pravastatin vs placebo: 0.74
CD6 hCV2553030, All Patients, Total Cardiovascular Disease Events, 2 rare alleles
  Odds ratio pravastatin vs placebo: 0.38
0 Rare Alleles, Prava arm
  Definite Nonfatal MI, n/total (%): (5.7%)
  Fatal CHD/Definite Nonfatal MI, n/total (%): (7.7%)
  Fatal/Nonfatal MI (def & prob), n/total (%): (10.6%)
  MI (Fatal/Nonfatal), n/total (%): (10.7%)
  Nonfatal MI (def & prob), n/total (%): (9.6%)
1 Rare Allele, Prava arm
  Definite Nonfatal MI, n/total (%): (9.2%)
  Fatal CHD/Definite Nonfatal MI, n/total (%): (12.3%)
  Fatal/Nonfatal MI (def & prob), n/total (%): (8.2%)
  MI (Fatal/Nonfatal), n/total (%): (8.6%)
  Nonfatal MI (def & prob), n/total (%): (7.7%)
2 Rare Alleles, Prava arm
  Definite Nonfatal MI, n/total (%): (4.8%)
  Fatal CHD/Definite Nonfatal MI, n/total (%): (9.7%)
  Fatal/Nonfatal MI (def & prob), n/total (%): (4.1%)
  MI (Fatal/Nonfatal), n/total (%): (4.1%)
CD6 hCV25922320, All Patients, Definite Nonfatal MI, 0 rare alleles
  Odds ratio pravastatin vs placebo: 0.52
CD6 hCV25922320, All Patients, Definite Nonfatal MI, 1 rare allele
  Odds ratio pravastatin vs placebo: 1.12
CD6 hCV25922320, All Patients, Definite Nonfatal MI, 2 rare alleles
  Odds ratio pravastatin vs placebo: 0.63
CD6 hCV25922320, All Patients, Fatal CHD/Definite Nonfatal MI, 2 rare alleles
  Odds ratio pravastatin vs placebo: 0.92
CHUK hCV1345898, All Patients, 0 Rare Alleles, Prava, n/total 47/413
  Non-fatal MI (def & prob), n/total (%): (11.4%)
CHUK hCV1345898, All Patients, 0 Rare Alleles, Prava, n/total 68/413
  Hosp. for Unstable Angina, n/total (%): (16.5%)
CHUK hCV1345898, All Patients, 1 Rare Allele, Prava, n/total 69/734
  Non-fatal MI (def & prob), n/total (%): (9.4%)
CHUK hCV1345898, All Patients, 1 Rare Allele, Prava, n/total 110/734
  Hosp. for Unstable Angina, n/total (%): (15.0%)
CHUK hCV1345898, All Patients, 2 Rare Alleles, Prava, n/total 17/354
  Non-fatal MI (def & prob), n/total (%): (4.8%)
CHUK hCV1345898, All Patients, 2 Rare Alleles, Prava, n/total 51/354
  Hosp. for Unstable Angina, n/total (%): (14.4%)
[9]
  Prava vs. Placebo Odds Ratio, 0 Rare Alleles: 1.38
  Prava vs. Placebo Odds Ratio, 1 Rare Alleles: 0.76
  Prava vs. Placebo Odds Ratio, 2 Rare Alleles: 0.59
[10]
  Prava vs. Placebo Odds Ratio, 0 Rare Alleles: 0.86
  Prava vs. Placebo Odds Ratio, 1 Rare Alleles: 0.77
  Prava vs. Placebo Odds Ratio, 2 Rare Alleles: 0.34
